Experimental data from publication PMC9510750, “Design, synthesis and biological evaluation of novel O-substituted tryptanthrin oxime derivatives as c-Jun N-terminal kinase inhibitors” (Frontiers in Pharmacology, 2022).
Read-outs that look alike come from different tables or passages of the source.

Key:
[1] = test system: NF-κB/AP-1 transcriptional activity in THP-1Blue cells; assay: LPS-induced NF-κB/AP-1 alkaline phosphatase reporter assay in THP-1Blue cells; format: cell-based; conditions: Homo sapiens; LPS 250 ng/ml, 24 h
Experimental: (§1) All cells were cultured at 37°C in a humidified atmosphere containing 5% CO2. THP-1Blue cells obtained from InvivoGen (San Diego, CA, United States) were cultured in RPMI 1640 medium (Mediatech Inc., Herndon, VA, United States) supplemented with 10% (v/v) fetal bovine serum (FBS), 4.5 g/L glucose, 100 μg/ml streptomycin, 100 U/mL penicillin, 100 μg/ml phleomycin (Zeocin), and 10 μg/ml blasticidin S. Human monocyte-macrophage MonoMac-6 cells (Deutsche Sammlung von Mikroorganismen und Zellkulturen GmbH, Braunschweig, Germany) were grown in RPMI 1640 medium supplemented with 10% (v/v) FBS, 10 μg/ml bovine insulin, 100 μg/ml streptomycin, and 100 U/mL penicillin.
Activation of AP-1/NF-κB was measured using an alkaline phosphatase reporter gene assay in THP1-Blue cells. Human monocytic THP-1Blue cells are stably transfected with a secreted embryonic alkaline phosphatase gene that is under the control of a promoter inducible by AP-1/NF-κB. THP-1Blue cells (2 × 10^5 cells/well) were pretreated with test compound or DMSO (1% final concentration) for 30 min, followed by addition of 250 ng/ml LPS (from Escherichia coli K-235; Sigma Chemical Co., St. Louis, MO, United States) for 24 h, and alkaline phosphatase activity was measured in cell supernatants using QUANTI-Blue mix (InvivoGen) with absorbance at 655 nm and compared with positive control samples (LPS). The concentrations of compound that caused 50% inhibition of the AP-1/NF-κB reporter activity (IC50) were calculated.

JNK1 = target: T1, JNK1 (Homo sapiens, UniProt P45983); assay: KINOMEscan ATP site-dependent binding assay, JNK1; conditions: mixture of E/Z isomers, read-out: Binding affinity JNK1 Kd
T1 construct: purchased Eurofins Pharma Discovery (KINOMEscan platform)
T1 sequence (P45983 whole entry): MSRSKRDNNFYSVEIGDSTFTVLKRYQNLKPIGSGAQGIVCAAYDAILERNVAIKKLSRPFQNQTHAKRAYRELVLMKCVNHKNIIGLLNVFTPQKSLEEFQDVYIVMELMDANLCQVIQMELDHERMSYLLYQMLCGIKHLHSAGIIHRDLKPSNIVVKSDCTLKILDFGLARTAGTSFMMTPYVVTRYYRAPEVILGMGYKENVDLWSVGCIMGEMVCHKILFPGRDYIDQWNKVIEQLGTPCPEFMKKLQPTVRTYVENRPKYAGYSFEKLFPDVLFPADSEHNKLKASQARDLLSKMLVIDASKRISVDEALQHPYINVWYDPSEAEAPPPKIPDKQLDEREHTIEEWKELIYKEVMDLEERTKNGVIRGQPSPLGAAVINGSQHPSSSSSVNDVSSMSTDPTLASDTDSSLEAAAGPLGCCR
Experimental: (§2) Selected compounds were submitted for dissociation constant (Kd) determination using the KINOMEscan platform (Eurofins Pharma Discovery, San Diego, CA, United States), as described previously ([Karaman et al., 2008]). […] Primary screening at fixed concentrations of compounds was performed in duplicate.

[2] = test system: IL-6 production in MonoMac-6 cells; assay: LPS-induced IL-6 production in MonoMac-6 cells (ELISA); format: cell-based; conditions: Homo sapiens, MONO-MAC-6; LPS 250 ng/ml, 24 h
Experimental: as §1
(§3) Human IL-6 ELISA kit (BD Biosciences, San Jose, CA, United States) was used to confirm the inhibitory effect of selected compounds on IL-6 production. MonoMac-6 cells were plated in 96-well plates at a density of 2 × 10^5 cells/well in culture medium supplemented with 3% (v/v) endotoxin-free FBS. Cells were pretreated with test compound or DMSO (1% final concentration) for 30 min, followed by addition of 250 ng/ml LPS for 24 h. IC50 values for IL-6 production were calculated by plotting the percentage inhibition against the logarithm of inhibitor concentration (at least five points). Multiplex human cytokine ELISA kit from Anogen (Mississauga, ON, Canada) was used to evaluate various cytokines (IL-1α, IL-1β, IL-6, GM-CSF, MCP-1, IFNγ, and TNF) in the supernatants of MonoMac-6 cells.

JNK2 = target: T2, JNK2 (Homo sapiens, UniProt P45984); assay: KINOMEscan ATP site-dependent binding assay, JNK2; conditions: mixture of E/Z isomers, read-out: Binding affinity JNK2 Kd
T2 construct: purchased Eurofins Pharma Discovery (KINOMEscan platform)
T2 sequence (P45984 whole entry): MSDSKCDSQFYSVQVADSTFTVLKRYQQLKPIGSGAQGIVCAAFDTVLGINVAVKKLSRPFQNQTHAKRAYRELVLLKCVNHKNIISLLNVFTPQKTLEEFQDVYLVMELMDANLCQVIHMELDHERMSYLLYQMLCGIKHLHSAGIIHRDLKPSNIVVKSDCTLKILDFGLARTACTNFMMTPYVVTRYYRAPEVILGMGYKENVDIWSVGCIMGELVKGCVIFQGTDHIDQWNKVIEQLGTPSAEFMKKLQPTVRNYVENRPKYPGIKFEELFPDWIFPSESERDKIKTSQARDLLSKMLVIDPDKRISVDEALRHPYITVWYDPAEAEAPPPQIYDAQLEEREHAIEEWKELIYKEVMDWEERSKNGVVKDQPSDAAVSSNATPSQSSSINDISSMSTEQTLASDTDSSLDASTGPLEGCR
Experimental: as §2

JNK3 = target: T3, JNK3 (Homo sapiens, UniProt P53779); assay: KINOMEscan ATP site-dependent binding assay, JNK3; conditions: for Kd: KINOMEscan, mixture of E/Z isomers, read-out: Binding affinity JNK3 Kd
T3 construct: purchased Eurofins Pharma Discovery (KINOMEscan platform)
T3 sequence (P53779 whole entry): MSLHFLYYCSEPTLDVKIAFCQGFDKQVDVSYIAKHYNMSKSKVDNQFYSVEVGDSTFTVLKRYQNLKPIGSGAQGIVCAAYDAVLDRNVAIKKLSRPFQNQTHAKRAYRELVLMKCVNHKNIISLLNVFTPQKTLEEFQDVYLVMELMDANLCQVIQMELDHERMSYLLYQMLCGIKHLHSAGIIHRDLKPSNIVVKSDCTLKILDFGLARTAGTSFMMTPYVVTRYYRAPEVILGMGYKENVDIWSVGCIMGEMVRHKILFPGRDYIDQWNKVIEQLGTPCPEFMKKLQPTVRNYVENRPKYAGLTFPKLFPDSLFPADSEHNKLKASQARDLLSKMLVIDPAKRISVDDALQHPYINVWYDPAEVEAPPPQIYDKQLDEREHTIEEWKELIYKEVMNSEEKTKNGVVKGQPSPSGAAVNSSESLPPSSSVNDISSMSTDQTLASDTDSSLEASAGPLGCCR
Experimental: as §2

[3] = Solubility in DMSO for the binding affinity assay; format: physicochemical; conditions: insufficiently soluble in DMSO for the binding affinity assay
Source text: TABLE 1 Binding affinity (Kd) of compounds 1a-o and their inhibitory effect on LPS-induced NF-κB/AP-1 transcriptional activity in THP-1Blue cells and IL-6 production in MonoMac-6 cells. | column: Binding affinity / JNK1

[4] = test system: c-Jun (Ser63) phosphorylation in MonoMac-6 cells; assay: LPS-induced c-Jun (Ser63) phosphorylation, Western blotting; format: cell-based, human; conditions: 30 min pretreatment, LPS 250 ng/ml 30 min, phospho-c-Jun/total c-Jun
Experimental: MonoMac-6 monocytic cells (10^7 cells) were incubated with different concentrations of compound 1j (final DMSO concentration of 0.5%) for 30 min at 37°C and then treated with LPS (250 ng/ml) or buffer for another 30 min at 37°C. Cells were washed twice with ice-cold phosphate buffer solution (pH 7.4), and cell lysates were prepared using lysis buffer (Cell Signaling Technology, Danvers, MA, United States). Cell lysates were separated on ExpressPlus 10% PAGE Gels (GenScript, Piscataway, NJ, United States) using TRIS-MOPS running buffer and transferred to nitrocellulose membranes. The blots were blocked overnight at 4°C in TRIS buffer (pH 7.4) + 0.1% Tween-20 (TBST) + 2.5% bovine serum albumin and probed with antibodies against phospho-c-Jun (Ser63) (Cell Signaling Technology), followed by horseradish peroxidase-conjugated secondary antibody (Cell Signaling Technology), and the blots were developed using Super-Signal West Femto chemiluminescent substrate (Thermo Fisher Scientific) and visualized with a FluorChem FC2 imaging system (Alpha Innotech Corporation, San Leandro, CA, United States). For measurement of total c-Jun signal, we stripped and reprobed the same Western blots that were used for phospho-c-Jun blots. […] Quantitation of the luminescent signals were performed using AlphaView software.

[5] = test system: proinflammatory cytokine production in MonoMac-6 cells; assay: Multiplex human cytokine ELISA, LPS-stimulated MonoMac-6 cells; format: cell-based; conditions: 10 μM, LPS 250 ng/ml 24 h
Experimental: as §3

[6] = test system: NF-κB/AP-1 transcriptional activity in THP-1Blue cells; parameters: method as in Schepetkin et al., 2019; conditions: LPS-stimulated; ref Schepetkin et al., 2019; cited from earlier work
[7] = test system: IL-6 production in MonoMac-6 cells; parameters: method as in Schepetkin et al., 2019; conditions: LPS-stimulated; ref Schepetkin et al., 2019; cited from earlier work

CON=C1c2ccccc2-n2c1nc1ccccc1c2=O [Compound 1a, 6-(methoxyimino)indolo[2,1-b]quinazolin-12(6H)-one]
IC50 [1]: 20.8 ± 5.3 µM | melting point: 218 °C | Kd (JNK1): 3.1 ± 0.8 µM | IC50 [2]: 23.5 ± 1.8 µM | Kd (JNK2): 5.6 ± 0.4 µM | Kd (JNK3): 1.4 ± 0.2 µM

CCON=C1c2ccccc2-n2c1nc1ccccc1c2=O [Compound 1b, 6-(ethoxyimino)indolo[2,1-b]quinazolin-12(6H)-one]
IC50 [1]: ≥ 50 µM | melting point: 117 °C | Kd (JNK1): 3.2 ± 1.2 µM | IC50 [2]: ≥ 50 µM | Kd (JNK2): 5.4 ± 0.6 µM | Kd (JNK3): 1.2 ± 0.4 µM

C=CCON=C1c2ccccc2-n2c1nc1ccccc1c2=O [Compound 1c, 6-((allyloxy)imino)indolo[2,1-b]quinazolin-12(6H)-one]
IC50 [1]: 18.9 ± 1.8 µM | melting point: 163 °C | Kd (JNK1): 3.6 ± 0.7 µM | IC50 [2]: ≥ 50 µM | Kd (JNK2): 4.1 ± 0.1 µM | Kd (JNK3): 0.85 ± 0.01 µM

CC(C)(C)ON=C1c2ccccc2-n2c1nc1ccccc1c2=O [Compound 1d, 6-(tert-butoxyimino)indolo[2,1-b]quinazolin-12(6H)-one]
IC50 [1]: ≥ 50 µM | melting point: 229 °C | Kd (JNK1): 9.3 ± 0.5 µM | IC50 [2]: ≥ 50 µM | Kd (JNK2): 12 ± 1.4 µM | Kd (JNK3): 2.3 ± 0.3 µM

N#CCON=C1c2ccccc2-n2c1nc1ccccc1c2=O [Compound 1e, 2-(((12-oxoindolo[2,1-b]quinazolin-6(12H)-ylidene)amino)oxy)acetonitrile]
IC50 [1]: ≥ 50 µM | melting point: 224 °C | Kd (JNK1): 19.5 ± 3.5 µM | IC50 [2]: ≥ 50 µM | Kd (JNK2): 17.5 ± 2.1 µM | Kd (JNK3): 1.5 ± 0.6 µM | JNK-3 selectivity over JNK-1 (JNK3; ratio of binding affinities): > 10 fold | JNK-3 selectivity over JNK-2 (JNK3; ratio of binding affinities): > 10 fold

O=c1c2ccccc2nc2n1-c1ccccc1C2=NOCc1ccccc1 [Compound 1f, 6-((benzyloxy)imino)indolo[2,1-b]quinazolin-12(6H)-one]
IC50 [1]: ≥ 50 µM | melting point: 206 °C | IC50 [2]: ≥ 50 µM | Kd (JNK3): ≥ 30 µM

O=c1c2ccccc2nc2n1-c1ccccc1C2=NOCc1c(F)c(F)c(F)c(F)c1F [Compound 1g, 6-(((pentafluorophenyl)methoxy)imino)indolo[2,1-b]quinazolin-12(6H)-one]
IC50 [1]: ≥ 50 µM | melting point: 183 °C | IC50 [2]: ≥ 50 µM | Kd (JNK3): ≥ 30 µM

O=c1c2ccccc2nc2n1-c1ccccc1C2=NOCc1ccc([N+](=O)[O-])cc1 [Compound 1h, 6-(((4-nitrobenzyl)oxy)imino)indolo[2,1-b]quinazolin-12(6H)-one]
IC50 [1]: ≥ 50 µM | melting point: 219 °C | Solubility [3]: Poor solubility ^b | IC50 [2]: ≥ 50 µM

O=c1c2ccccc2nc2n1-c1ccccc1C2=NOCc1ccccn1 [Compound 1i, 6-((pyridin-2-ylmethoxy)imino)indolo[2,1-b]quinazolin-12(6H)-one]
IC50 [1]: ≥ 50 µM | melting point: 199 to 200 °C | Kd (JNK1): 4 ± 0.9 µM | IC50 [2]: ≥ 50 µM | Kd (JNK2): 3.9 ± 0.4 µM | Kd (JNK3): 1.5 ± 0.1 µM

CC(=O)ON=C1c2ccccc2-n2c1nc1ccccc1c2=O [Compound 1j, 6-(acetoxyimino)indolo[2,1-b]quinazolin-12(6H)-one]
IC50 [1]: 0.8 ± 0.2 µM | Inhibition of LPS-induced c-Jun (S63) phosphorylation [4]: dose-dependent inhibition | Secretion of GM-CSF ([5]; vs DMSO-treated control): completely inhibited | Secretion of IL-1α ([5]; vs DMSO-treated control): completely inhibited | Secretion of IL-1β ([5]; vs DMSO-treated control): completely inhibited | Secretion of IL-6 ([5]; vs DMSO-treated control): completely inhibited | Secretion of MCP-1 ([5]; vs DMSO-treated control): completely inhibited | Secretion of TNF ([5]; vs DMSO-treated control): completely inhibited | Effect on IFN-γ production ([5]; low production of this cytokine after LPS): inconclusive | melting point: 262 °C | Kd (JNK1): 0.34 ± 0.04 µM | IC50 [2]: 1.7 ± 0.1 µM | Kd (JNK2): 0.49 ± 0.01 µM | Kd (JNK3): 0.18 ± 0.04 µM

NN=C1c2ccccc2-n2c1nc1ccccc1c2=O [Compound 1m, 6-hydrazonoindolo[2,1-b]quinazolin-12(6H)-one]
IC50 [1]: ≥ 50 µM | melting point: > 400 °C (dec.) | Solubility [3]: Poor solubility ^b | IC50 [2]: ≥ 50 µM

O=c1c2ccccc2nc2n1-c1ccccc1C2=NNc1ccccc1 [Compound 1n, 6-(2-phenylhydrazono)indolo[2,1-b]quinazolin-12(6H)-one]
IC50 [1]: ≥ 50 µM | melting point: 223 °C | Solubility [3]: Poor solubility ^b | IC50 [2]: ≥ 50 µM

NC(=O)NN=C1c2ccccc2-n2c1nc1ccccc1c2=O [Compound 1o, 2-(12-oxoindolo[2,1-b]quinazolin-6(12H)-ylidene)hydrazinecarboxamide]
IC50 [1]: 3.3 ± 0.1 µM | melting point: 266 °C | IC50 [2]: 6.6 ± 1.2 µM

O=c1c2ccccc2nc2n1-c1ccccc1/C2=N\O [TRYP-Ox]
IC50 [6]: 3.8 ± 1.1 µM | IC50 [7]: 3.2 ± 1.2 µM
